From patent US5877185A, “Synergistic compositions useful as anti-tumor agents” (priority 1995, dated 1999)
“Also recorded” adds a separate entry of the source.

Legend:
[1] = system: CCHC zinc fingers of pADPRT or p7 NC protein of retroviruses; conditions: cited from earlier work
[2] = system: SIVmac239 in CEM ×174 cells; test: effect of IABP on SIVmac239 replication, p27 core antigen assay; assay type: cell-based, SIV
Protocol: CEM ×174 cells (3×10^5 /ml) were infected with SIVmac239 on day 0 and incubated for 3 days (37° C., 5% CO2) before treatment with IABP (0-0.5 mM). The cultures were incubated for an additional 4 days before being replenished with fresh CEM ×174 cells (3×10^5/ml) and IABP. On day 10 the levels of free virus in the supernatants of the cultures were assessed using the SIV p27 core antigen assay (Coulter Corp). The absorbance was measured at 450 nm.
The effect of IABP on the infection cycle of SIV was determined. CEM ×174 cells (3×10^5 /ml) were infected with SIVmac239 on day 0 and incubated for 3 days ([…], 5% CO2) before treatment with IABP (0-0.5 mM). The cultures were incubated for an additional 4 days before being replenished with fresh CEM ×174 cells (3×10^5/ml) and IABP. On day 10 the levels of free virus in the supernatants of the cultures were assessed using the SIV p27 core antigen assay (Coulter Copr.) The absorbance was measured at 450 nm.

[3] = system: cells; conditions: Cole et al.; cited from earlier work
[4] = system: L 1210 cells; test: cytotoxic effect of IABP and INO2 BA, alone and combined, on L 1210 cell growth; assay type: cell-based, murine; conditions: Mus musculus, L1210, 72 h, three days, read-out: decrease of L 1210 cell proliferation
Protocol: 64 μM INO2 BA decreased L 1210 cell proliferation by approximately 80% over a three day growth period.

[5] = system: HIV; conditions: Cole et al.; cited from earlier work
[6] = system: SIVmac239 or virus isolates in CEM ×174 cells; conditions: Chuang et al., submitted (1994); cited from earlier work

## Nc1ccc2oc(=O)ccc2c1I [IABP, 5-iodo-6-amino-1,2-benzopyrone]
[1]
  influence on CCHC zinc fingers: no influence
[2]; 0-0.5 mM, day 10
  p27 levels: depresses p27 levels proportional to its concentration
[2]; 0.3 and 0.5 mM IABP
  titre of virions in the supernatant: reduced the titre of virions
[3]
  toxicity of IABP: very low; also recorded: no toxic effect on cells; also recorded: non-toxicity
[4]; IABP 160 μM
  inhibition at 160 µM: ~55%
[4]; IABP 320 μM
  inhibition at 320 µM: ~80%
[4]; IABP 480 μM
  inhibition at 480 µM: ~93%
[5]
  infectious cycle of HIV: blocked the infectious cycle of HIV
[6]
  sensitivity to addition of BSO: insensitive
